Measured values: ChEMBL document CHEMBL6074662, “Antibacterial, Antibiofilm, and Anti-inflammatory Effects of a Novel Thrombin-Derived Peptide in Sepsis Models: Insights into Underlying Mechanisms” (J Med Chem, 2024)
The source made the active and inactive calls. The rule behind the calls is not given here.

Assays:
Pseudomonas aeruginosa [1] = assay: Antibacterial activity against multidrug-resistant Pseudomonas aeruginosa CCARM 2095 incubated for 24 hrs by CLSI based broth microdilution method; assay type: functional
Pseudomonas aeruginosa [2] = assay: Antibacterial activity against Pseudomonas aeruginosa KCTC 1637 incubated for 24 hrs by CLSI based broth microdilution method; assay type: functional
[3] = Effect on secondary structure of drug in PBS assessed as formation of random coil structure at 150 uM by CD analysis; assay type: physicochemical; conditions: buffer
Staphylococcus aureus [4] = assay: Synergistic antibacterial activity against methicillin-resistant Staphylococcus aureus CCARM 3089 assessed as MIC of Chloramphenicol incubated for 24 hrs by broth microdilution method; assay type: functional
Pseudomonas aeruginosa [5] = assay: Inhibition of biofilm formation in multi-drug resistant Pseudomonas aeruginosa CCARM 2095 at 1 to 128 uM by crystal violet staining based analysis; assay type: functional, organism-based; conditions: dose 1-128 µM
Staphylococcus aureus [6] = assay: Antibacterial activity against methicillin-resistant Staphylococcus aureus CCARM 3089 incubated for 24 hrs by CLSI based broth microdilution method; assay type: functional
Escherichia coli [7] = assay: Induction of resistance development in Escherichia coli KCTC 1682 at 0.5 times MIC measured after 30 passages; assay type: functional, organism-based
Acinetobacter baumannii [8] = assay: Antibacterial activity against carbapenem-resistant Acinetobacter baumannii CCARM 12005 incubated for 24 hrs by CLSI based broth microdilution method; assay type: functional
Staphylococcus aureus [9] = assay: Synergistic antibacterial activity against methicillin-resistant Staphylococcus aureus CCARM 3089 assessed as MIC of Oxacillin incubated for 24 hrs by broth microdilution method; assay type: functional
Bacillus subtilis = assay: Antibacterial activity against Bacillus subtilis KCTC 3068 incubated for 24 hrs by CLSI based broth microdilution method; assay type: functional
Staphylococcus aureus [10] = assay: Synergistic antibacterial activity against methicillin-resistant Staphylococcus aureus CCARM 3089 incubated for 24 hrs in presence of Ciprofloxacin by broth microdilution method; assay type: functional
Escherichia coli [11] = assay: Antibacterial activity against Escherichia coli KCTC 1682 incubated for 24 hrs by CLSI based broth microdilution method; assay type: functional
RAW264.7 [12] = assay: Anti-inflammatory activity in mouse RAW264.7 cells assessed as inhibition of LPS-induced NO production at 2.5 uM pretreated for 1 hr followed by LPS treatment for 16 hrs by Griess assay relative to control; assay type: functional; conditions: time 17 hrs
Staphylococcus aureus [13] = assay: Synergistic antibacterial activity against methicillin-resistant Staphylococcus aureus CCARM 3089 assessed as fractional inhibitory concentration index by measuring ratio of MIC of Oxacillin in presence of compound to MIC to Oxacillin incubated for 24 hrs by broth microdilution method; assay type: functional
Staphylococcus aureus [14] = assay: Synergistic antibacterial activity against methicillin-resistant Staphylococcus aureus CCARM 3089 incubated for 24 hrs in presence of Chloramphenicol by broth microdilution method; assay type: functional
Escherichia coli [15] = assay: Induction of morphological change in Escherichia coli KCTC 1682 assessed as distorted irregular cells at MIC incubated for 4 hrs by SEM analysis; assay type: functional, organism-based
Acinetobacter baumannii [16] = assay: Antibacterial activity against multidrug-resistant Acinetobacter baumannii 329-97 incubated for 24 hrs by CLSI based broth microdilution method; assay type: functional
Escherichia coli [17] = assay: Induction of cytoplasmic membrane depolarization in Escherichia coli KCTC 1682 at 0.5 times MIC measured for 500 secs by diSC3-5 dye based analysis relative to control; assay type: functional; conditions: time 500 sec; 0.1389 h
Escherichia coli [18] = assay: Induction of outer membrane permeabilization in Escherichia coli KCTC 1682 by NPN dye based analysis; assay type: functional, organism-based
Staphylococcus aureus [19] = assay: Synergistic antibacterial activity against methicillin-resistant Staphylococcus aureus CCARM 3089 assessed as MIC of Ciprofloxacin incubated for 24 hrs by broth microdilution method; assay type: functional
Pseudomonas aeruginosa [20] = assay: Synergistic antibacterial activity against multi-drug resistant Pseudomonas aeruginosa CCARM 2095 assessed as MIC of Ciprofloxacin incubated for 24 hrs by broth microdilution method; assay type: functional
Staphylococcus aureus [21] = assay: Synergistic antibacterial activity against methicillin-resistant Staphylococcus aureus CCARM 3089 assessed as fractional inhibitory concentration index by measuring ratio of MIC of compound in presence of Oxacillin to MIC to compound incubated for 24 hrs by broth microdilution method; assay type: functional
[22] = Cytotoxicity against mouse RAW264.7 cells assessed as cell survival at 10 to 20 uM incubated for 16 hrs by WST-8 assay relative to control; assay type: toxicity, cell-based; conditions: dose 10-20 µM, read-out: Survival
Staphylococcus aureus [23] = assay: Synergistic antibacterial activity against methicillin-resistant Staphylococcus aureus CCARM 3089 assessed as fractional inhibitory concentration index incubated for 24 hrs in presence of Oxacillin by broth microdilution method; assay type: functional
Staphylococcus aureus [24] = assay: Synergistic antibacterial activity against methicillin-resistant Staphylococcus aureus CCARM 3089 assessed as fractional inhibitory concentration index by measuring ratio of MIC of compound in presence of Ciprofloxacin to MIC to compound incubated for 24 hrs by broth microdilution method; assay type: functional
RAW264.7 [25] = assay: Anti-inflammatory activity in mouse RAW264.7 cells assessed as decrease in LPS-induced ROS production at 5 uM pretreated for 1 hr followed by LPS treatment for 16 hrs by DCFDA staining based analysis relative to control; assay type: functional
[26] = system: Staphylococcus epidermidis; assay: Antibacterial activity against Staphylococcus epidermidis KCTC 1917 incubated for 24 hrs by CLSI based broth microdilution method; assay type: functional
Pseudomonas aeruginosa [27] = assay: Eradication of biofilm formation in multi-drug resistant Pseudomonas aeruginosa CCARM 2095 at 1 to 128 uM incubated for 12 hrs by CLSM analysis; assay type: functional, organism-based; conditions: dose 1-128 µM
Staphylococcus aureus [28] = assay: Synergistic antibacterial activity against methicillin-resistant Staphylococcus aureus CCARM 3089 assessed as fractional inhibitory concentration index incubated for 24 hrs in presence of Chloramphenicol by broth microdilution method; assay type: functional
Acinetobacter baumannii [29] = assay: Antibacterial activity against carbapenem-resistant Acinetobacter baumannii NMS 1707 incubated for 24 hrs by CLSI based broth microdilution method; assay type: functional
Enterococcus faecium = assay: Antibacterial activity against vancomycin-resistant Enterococcus faecium ATCC 51559 incubated for 24 hrs by CLSI based broth microdilution method; assay type: functional
Staphylococcus aureus [30] = assay: Synergistic antibacterial activity against methicillin-resistant Staphylococcus aureus CCARM 3089 assessed as fractional inhibitory concentration index incubated for 24 hrs in presence of Ciprofloxacin by broth microdilution method; assay type: functional
Pseudomonas aeruginosa [31] = assay: Synergistic antibacterial activity against multi-drug resistant Pseudomonas aeruginosa CCARM 2095 incubated for 24 hrs in presence of Ciprofloxacin by broth microdilution method; assay type: functional
Staphylococcus aureus [32] = assay: Antibacterial activity against methicillin-resistant Staphylococcus aureus CCARM 3090 incubated for 24 hrs by CLSI based broth microdilution method; assay type: functional
Pseudomonas aeruginosa [33] = assay: Synergistic antibacterial activity against multi-drug resistant Pseudomonas aeruginosa CCARM 2095 incubated for 24 hrs in presence of Chloramphenicol by broth microdilution method; assay type: functional
[34] = Cytotoxicity against mouse RAW264.7 cells assessed as cell viability at 30 uM incubated for 16 hrs by WST-8 assay relative to control; assay type: toxicity, cell-based; conditions: read-out: Activity
Acinetobacter baumannii [35] = assay: Antibacterial activity against carbapenem-resistant Acinetobacter baumannii NMS 1915 incubated for 24 hrs by CLSI based broth microdilution method; assay type: functional
Escherichia coli [36] = assay: Induction of cytoplasmic membrane depolarization in Escherichia coli KCTC 1682 at MIC measured for 500 secs by diSC3-5 dye based analysis relative to control; assay type: functional; conditions: time 500 sec; 0.1389 h
Pseudomonas aeruginosa [37] = assay: Synergistic antibacterial activity against multi-drug resistant Pseudomonas aeruginosa CCARM 2095 assessed as fractional inhibitory concentration index incubated for 24 hrs in presence of Chloramphenicol by broth microdilution method; assay type: functional

Substance | MIC (Pseudomonas aeruginosa [1]) [µM] | MIC (Pseudomonas aeruginosa [2]) [µM] | Activity [3] | MIC (Staphylococcus aureus [4]) [µM] | Activity (Pseudomonas aeruginosa [5]) | MIC (Staphylococcus aureus [6]) [µM] | Activity (Escherichia coli [7]) | MIC (Acinetobacter baumannii [8]) [µM] | MIC (Staphylococcus aureus [9]) [µM] | MIC (Bacillus subtilis) [µM] | MIC (Staphylococcus aureus [10]) [µM] | MIC (Escherichia coli [11]) [µM] | inhibition at 2.5 µM (RAW264.7 [12]) [%] | FIC (Staphylococcus aureus [13]) | MIC (Staphylococcus aureus [14]) [µM] | Activity (Escherichia coli [15]) | MIC (Acinetobacter baumannii [16]) [µM] | Activity (Escherichia coli [17]) [%] | Activity (Escherichia coli [18]) | MIC (Staphylococcus aureus [19]) [µM] | other results
H-GVFRLKKWIKKVIKKWGK-NH2 | 8 | 8 | Active | 256 | Active; Superior Activity Compared To Ll-37 | 8 | inactive | 4 | 512 | 4 | 2 | 16 | 80.7 | 0.25 | 2 | Active | 2 | ~50 | Dose-dependent-effect | 512 | MIC (Pseudomonas aeruginosa [20]): 128 µM; FIC (Staphylococcus aureus [21]): 0.063; viability at 16 h, up to 20 µM [22]: > 95%; fractional inhibitory concentration index (FICI) (Staphylococcus aureus [23]): 0.313; FIC (Staphylococcus aureus [24]): 0.25; inhibition at 5 µM (RAW264.7 [25]): 40%; MIC [26]: 8 µM; Activity (Pseudomonas aeruginosa [27]): Active; Superior Activity Compared To Ll-37; fractional inhibitory concentration index (FICI) (Staphylococcus aureus [28]): 0.5; MIC (Acinetobacter baumannii [29]): 4 µM; MIC (Enterococcus faecium): 8 µM; fractional inhibitory concentration index (FICI) (Staphylococcus aureus [30]): 0.75; MIC (Pseudomonas aeruginosa [31]): 4 µM; MIC (Staphylococcus aureus [32]): 8 µM; MIC (Pseudomonas aeruginosa [33]): 2 µM; viability at 16 h, 30 µM [34]: > 80%; MIC (Acinetobacter baumannii [35]): 2 µM; Activity (Escherichia coli [36]): ~100%; fractional inhibitory concentration index (FICI) (Pseudomonas aeruginosa [37]): 0.375
H-GVFRLKKWLKKVKKWGK-NH2 | 8 | 8 | Active | 512 | Active; Superior Activity Compared To Ll-37 | 8 | inactive | 4 | 512 | 4 | 4 | 16 | 80.3 | 0.25 | 0.5 | Active | 4 | ~50 | Dose-dependent-effect | 512 | MIC (Pseudomonas aeruginosa [20]): 256 µM; FIC (Staphylococcus aureus [21]): 0.063; viability at 16 h, up to 20 µM [22]: > 95%; fractional inhibitory concentration index (FICI) (Staphylococcus aureus [23]): 0.313; FIC (Staphylococcus aureus [24]): 0.5; inhibition at 5 µM (RAW264.7 [25]): 51.1%; MIC [26]: 8 µM; Activity (Pseudomonas aeruginosa [27]): Active; Superior Activity Compared To Ll-37; fractional inhibitory concentration index (FICI) (Staphylococcus aureus [28]): 0.563; MIC (Acinetobacter baumannii [29]): 4 µM; MIC (Enterococcus faecium): 8 µM; fractional inhibitory concentration index (FICI) (Staphylococcus aureus [30]): 1; MIC (Pseudomonas aeruginosa [31]): 4 µM; MIC (Staphylococcus aureus [32]): 8 µM; MIC (Pseudomonas aeruginosa [33]): 2 µM; viability at 16 h, 30 µM [34]: > 80%; MIC (Acinetobacter baumannii [35]): 4 µM; Activity (Escherichia coli [36]): ~100%; fractional inhibitory concentration index (FICI) (Pseudomonas aeruginosa [37]): 0.375
